Results taken from patent publication US20080221021A1, “Novel Corticotropin-Releasing Factor Receptor 1 (Crfr1) Agonist” (Max-Planck-Gesellschaft Zur Forderung Der, priority 2004, published 2008).
“Also recorded” adds a separate entry of the source. Where no end group is shown, it is not given here.

Legend:
[1] = test system: CRFR1; settings: cited from earlier work
[2] = biological target: T1, rCRFR1 (Rattus norvegicus, UniProt P35353); test: Competition binding scintillation proximity assay, rCRFR1 membranes; settings: for selectivity for CRFR1: CRFR1 vs CRFR2, in words
T1 construct: expressed in transfected cells
T1 sequence (P35353 24-415): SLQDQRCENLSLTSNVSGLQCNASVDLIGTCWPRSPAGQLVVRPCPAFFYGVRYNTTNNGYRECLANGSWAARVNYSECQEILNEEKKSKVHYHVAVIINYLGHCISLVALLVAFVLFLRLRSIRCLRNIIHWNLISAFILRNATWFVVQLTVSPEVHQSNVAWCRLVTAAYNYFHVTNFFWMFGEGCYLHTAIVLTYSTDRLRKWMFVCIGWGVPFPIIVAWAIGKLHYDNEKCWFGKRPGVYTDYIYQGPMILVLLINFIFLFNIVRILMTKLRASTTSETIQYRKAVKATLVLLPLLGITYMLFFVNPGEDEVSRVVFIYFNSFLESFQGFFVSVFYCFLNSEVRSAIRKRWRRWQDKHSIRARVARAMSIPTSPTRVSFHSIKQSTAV
Procedure: (§1) Crude membrane fractions were prepared from human embryonic kidney (HEK) 293 cells stably expressing either cloned rat CRFR1α(rCRFR1) or mouse CRFR2β (mCRFR2β) as described (20). Rat CRFBP (rCRFBP) was produced in HEK 293 cells stably transfected with cDNA coding for rCRFBP C-terminally fused with a His6 sequence as described (36). The scintillation proximity assays (SPA) for binding analysis of CRFR and CRFBP have been already described in detail (21, 22). For competition binding assays of rCRFR1 and rCRFBP, [^125I-Tyr^0]h/rCRF was used as radiolabeled peptide, whereas [^125I-Tyr^0]Svg was employed for mCRFR2β.

[3] = biological target: T1, rCRFR1; test: Agonist-induced intracellular cAMP accumulation in HEK 293 cells producing rCRFR1; assay type: cell-based; settings: ratio of biological potencies (cAMP)
Procedure: The biological potency of cortagine and OCRF was evaluated by the determination of the EC50 values for agonist-induced intracellular accumulation of cAMP in HEK 293 cells producing either rCRFR1 or mCRFR2β.
The HEK 293 cells were plated into 24 well cell culture plates and stimulated as described (21) using increasing concentrations of the agonists under investigation. Intracellular cAMP was measured with the Biotrak™ cAMP [^125I] SPA system (Amersham Pharmacia Biotech) according to the manufacturer's product manual.

[4] = Maximum solubility in aCSF by amino acid analysis; assay type: physicochemical; settings: aCSF, pH 7.4; read-out: maximal solubility cmax
Procedure: After dissolving the peptides in artificial cerebrospinal fluid (aCSF; 124 mM NaCl, 26.4 mM NaHCO3, 10 mM glucose, 3.3 mM KCl, 2.5 mM CaCl2 , 2.4 mM MgSO4 , 1.2 mM KH2PO4) at pH=7.4, the maximum solubility cmax was determined by amino acid analysis as described (21). The isoelectric point of the peptides was determined by isoelectric focusing (IEF) as described (21) with a Bio-Rad IEF cell system using Bio-Rad IEF strips in the pH range 3-10.

[5] = assay type: physicochemical
Procedure: A high solubility under physiological conditions is a crucial prerequisite especially for compounds to be injected into the rodent brain. […] Both peptides were soluble in a concentration range of up to 1000 μM (FIG. 6), so that there was no limitation in view of the agonist doses typically used in behavioral experiments. […] Consequently, solutions of cortagine to be used in the pharmacological assays were prepared in phosphate buffered saline (PBS; pH=7.4).

[6] = biological target: T2, mCRFR2β (Mus musculus, UniProt Q60748); test: Competition binding scintillation proximity assay, mCRFR2β membranes; settings: for affinity for CRFR2: binding analysis, in words
T2 construct: expressed in transfected cells
T2 sequence (Q60748 1-431 isoform Q60748-2): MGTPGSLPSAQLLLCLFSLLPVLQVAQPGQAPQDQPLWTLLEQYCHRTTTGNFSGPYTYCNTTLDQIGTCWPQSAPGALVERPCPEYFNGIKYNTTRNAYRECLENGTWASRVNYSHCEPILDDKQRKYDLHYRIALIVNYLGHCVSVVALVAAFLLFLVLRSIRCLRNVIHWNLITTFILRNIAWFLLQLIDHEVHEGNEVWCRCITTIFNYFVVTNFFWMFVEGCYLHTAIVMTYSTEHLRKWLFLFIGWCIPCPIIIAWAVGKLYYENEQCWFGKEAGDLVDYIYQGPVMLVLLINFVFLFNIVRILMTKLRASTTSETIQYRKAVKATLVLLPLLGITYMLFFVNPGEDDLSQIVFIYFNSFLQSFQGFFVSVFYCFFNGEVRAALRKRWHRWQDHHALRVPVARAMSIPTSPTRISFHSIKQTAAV
Procedure: as §1

[7] = biological target: T3, rCRFBP (Rattus norvegicus, UniProt P24388); test: Competition binding scintillation proximity assay, rCRFBP; settings: binding analysis, in words
T3 construct: His6 (C); made in house; host or cells: HEK 293 cells, stably transfected
T3 sequence (P24388 25-322): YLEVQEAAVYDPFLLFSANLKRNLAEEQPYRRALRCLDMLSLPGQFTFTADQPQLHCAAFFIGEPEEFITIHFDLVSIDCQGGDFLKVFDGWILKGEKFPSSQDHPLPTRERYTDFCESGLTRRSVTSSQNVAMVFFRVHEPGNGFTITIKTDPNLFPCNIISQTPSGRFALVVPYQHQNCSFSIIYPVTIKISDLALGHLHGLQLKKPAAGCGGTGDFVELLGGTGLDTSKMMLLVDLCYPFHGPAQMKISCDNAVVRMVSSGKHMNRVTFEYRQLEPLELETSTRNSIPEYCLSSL
Procedure: as §1

[8] = test system: C57BL/6J mice; test: Elevated plus-maze test, intraseptal (i.s.) injection; assay type: in vivo, mouse; settings: 400 ng aSvg-30 i.s. 15 min before oCRF
Procedure: Nine-week old male C57BL/6J (Centre D'Elevage Janvier, Sultzfeld, France) were individually housed in macrolon cages according to the recommendations of the Society for Laboratory Animal Science (Germany). All experiments were carried out in accordance with the European Council Directive (86/609/EEC) with the permission of the Animal Protection Law enforced by the District Government of Braunschweig, State of Lower Saxony, Germany, which is in full agreement with the APA ethical guidelines. All efforts were made to minimize animal suffering. The number of mice per group was 9-11.
All peptides were dissolved in aCSF except for the CRFR2-selective antagonist antisauvagine-30 (aSvg-30) (20) that was initially dissolved in 10 mM aqueous acetic acid and diluted with the same volume of two-fold concentrated aCSF. The final pH of the peptide solutions was 7.4. The exact peptide concentration of the injection solutions was determined by amino acid analysis with a Beckman HPLC analyzer system 6300. […]
The elevated plus-maze (EPM) behavior of C57BL/6J mice cannulated in the lateral ventricles or lateral intermediate septal area (23) was investigated 30 min after injection of the CRFR1 agonist under investigation for 5 min in the EPM test (24). […] The behavior of the mice was recorded by a video camera connected to a PC and analyzed by the Technical & Scientific Equipment software VIDEOMOT 2. […]

For `CCCCN(CC)c1nc(C)nc2c1c(C)cn2-c1c(C)cc(C)cc1C` [CP-154,526], the “locomotion in the EPM test” value [1] is listed as “nonspecific increase in locomotion”.
In the case of `CC[C@H](C)[C@H](NC(=O)[C@@H](NC(=O)[C@H](CC(=O)O)NC(=O)[C@H](CC(C)C)NC(=O)[C@H](CC(C)C)NC(=O)[C@H](CC(C)C)NC(=O)[C@H](CCCNC(=N)N)NC(=O)[C@H](CC(N)=O)NC(=O)[C@H](CC(N)=O)NC(=O)[C@H](C)NC(=O)[C@H](C)NC(=O)[C@H](CCC(N)=O)NC(=O)[C@H](CCC(N)=O)NC(=O)[C@H](CCCCN)NC(=O)[C@H](CCC(=O)O)NC(=O)[C@H](CCCCN)NC(=O)[C@H](CCC(=O)O)NC(=O)[C@H](CCC(N)=O)NC(=O)[C@H](CCCCN)NC(=O)[C@H](CCC(=O)O)NC(=O)[C@@H](NC(=O)[C@H](CCC(=O)O)NC(=O)[C@@H](NC(=O)[C@H](CCSC)NC(=O)[C@H](CCCCN)NC(=O)[C@H](CCCNC(=N)N)NC(=O)[C@H](CC(C)C)NC(=O)[C@H](CC(C)C)NC(=O)[C@H](CCC(=O)O)NC(=O)[C@H](CC(C)C)NC(=O)[C@H](CO)NC(=O)[C@H](CC(C)C)NC(=O)[C@H](CC(=O)O)NC(=O)[C@@H](NC(=O)[C@H](CO)NC(=O)[C@@H](NC(=O)[C@@H]1CCCN1C(=O)[C@@H]1CCCN1C(=O)CNC(=O)[C@@H]1CCC(=O)N1)[C@@H](C)CC)[C@@H](C)CC)[C@@H](C)CC)[C@@H](C)CC)[C@@H](C)O)C(N)=O` [Svg, sauvagine, reference compound], the “selectivity for CRFR1” value ([2]; binding analysis) is reported as “non-selective”.
In the case of `CC[C@H](C)[C@H](NC(=O)[C@H](CC(=O)O)NC(=O)[C@H](CC(C)C)NC(=O)[C@H](CC(C)C)NC(=O)[C@H](CCCCN)NC(=O)[C@H](CCCNC(=N)N)NC(=O)[C@H](CC(N)=O)NC(=O)[C@H](CO)NC(=O)[C@H](Cc1c[nH]cn1)NC(=O)[C@H](C)NC(=O)[C@H](CCC(N)=O)NC(=O)[C@H](CCC(N)=O)NC(=O)[C@H](C)NC(=O)[C@H](CC(C)C)NC(=O)[C@H](CCC(N)=O)NC(=O)[C@H](CC(=O)O)NC(=O)[C@H](C)NC(=O)[C@H](CCCCN)NC(=O)[C@@H](NC(=O)[C@H](CCSC)NC(=O)[C@H](CCC(=O)O)NC(=O)[C@H](CC(C)C)NC(=O)[C@@H](NC(=O)[C@H](CCC(=O)O)NC(=O)[C@H](CCCNC(=N)N)NC(=O)[C@H](CC(C)C)NC(=O)[C@H](CC(C)C)NC(=O)[C@H](Cc1c[nH]cn1)NC(=O)[C@H](Cc1ccccc1)NC(=O)[C@@H](NC(=O)[C@H](CC(C)C)NC(=O)[C@H](CC(=O)O)NC(=O)[C@H](CC(C)C)NC(=O)[C@H](CO)NC(=O)[C@@H](NC(=O)[C@@H]1CCCN1C(=O)[C@@H]1CCCN1C(=O)[C@H](CCC(=O)O)NC(=O)[C@H](CCC(N)=O)NC(=O)[C@@H](N)CO)[C@@H](C)CC)[C@@H](C)O)C(C)C)[C@@H](C)O)C(=O)N[C@@H](C)C(N)=O` [oCRF, ovine CRF, reference compound], the “CRFR1-selectivity over CRFR2β, EC50(mCRFR2)/EC50(rCRFR1)” value [3] is reported as 19, the solubility [4] is reported as at most 1000 µM and the “solubility in 10 mM aqueous acetic acid” value [5] is reported as “soluble in 10 mM aqueous acetic acid”. For the same compound, the “CRFR1-selectivity over CRFR2β, IC50(mCRFR2)/IC50(rCRFR1)” value ([2]; ratio of binding affinities) was 89.
In the case of “[Ala^40] [Svg^1-12]x[h/rCRF^14-30]x[Svg^30-40] [compound 8]”, the “change in affinity for CRFR2 in comparison to parent peptide” value ([6]; compound 8 vs compound 6, compound 9 vs compound 8) is reported as “only a slight increase”, the “selectivity for CRFR1” value ([2]; binding analysis) is reported as “highly selective for CRFR1” and the “change in affinity to CRFR1 in comparison to parent peptide” value ([2]; compound 8 vs compound 6, compound 9 vs compound 8, Nle20 analog vs compound 9) is reported as “more than five-fold increase”. The “affinity to CRFBP” value [7] was “high affinity”.
For “[Ala^41]h/rCRF (SEEPPISLDLTFHLLREVLEMARAEQLAQQAHSNRKLMEIA; ends and bridges not checked; UniProt P06850 154-194, looked up, variant I41A) [h/rCRF analog with Ala in position 41]”, the “selectivity for CRFR1 in comparison to h/rCRF” value ([2]; binding analysis) was “increase in CRFR1 selectivity by a factor of three”.
With “[Svg^1-12 ]x[h/rCRF^14-30]x[Svg^30-40] (QGPPISIDLSLELLREVLEMARAEQLAQQAANNRLLLDTI; not fully specified (residue 1); ends and bridges not checked) [compound 6]” the “affinity for CRFR2” value [6] was “low affinity to CRFR2” and the “selectivity for CRFR1” value ([2]; binding analysis) was “selective for CRFR1”.
For “[Svg^1-29]x[h/rCRF^31-41] (QGPPISIDLSLELLRKMIEIEKQEKEKQQAHSNRKLMEII; ends and bridges not checked) [compound 7, chimeric peptide of h/rCRF and Svg domains]”, the “selectivity for CRFR1” value ([2]; binding analysis) was “not”.
In the case of “[h/rCRF^1-13]x[Svg^13-29]x[h/rCRF^31-41] (SEEPPISLDLTFHLLRKMIEIEKQEKEKQQAHSNRKLMEII; ends and bridges not checked) [compound 4, chimeric peptide of h/rCRF and Svg domains]”, the “affinity for CRFR2” value [6] is reported as “not” and the “selectivity for CRFR1” value ([2]; binding analysis) is reported as “not”.
With “[h/rCRF^1-30]x[Svg^30-40] (SEEPPISLDLTFHLLREVLEMARAEQLAQQAANNRLLLDTI; ends and bridges not checked) [compound 5, chimeric peptide of h/rCRF and Svg domains]” the “affinity for CRFR2” value [6] was “low affinity” and the “selectivity for CRFR1” value ([2]; binding analysis) was “clear selectivity for CRFR1”.
In the case of anti-sauvagine-30 [aSvg-30], the “antagonism of anxiogenic effects of 100 ng oCRF” value [8] is reported as “completely prevented; also recorded: fully antagonized”.
